“Also recorded” adds a separate entry of the source.
Assays:
[1] = test system: mice treated with rt-PA after embolic stroke; experiment: Embolic stroke in mice treated with rt-PA: hemorrhage and brain injury at 24 h; assay type: in vivo; conditions: 10 mg/kg rt-PA plus nelonemdazK IV at 4.5 hours after embolic stroke, analyzed at 24 hours
Description: Embolic stroke was induced by injection of blood clot into the right internal carotid artery of mice. Animals received intravenous administration of saline, 10 mg/kg rt-PA, or 10 mg/kg rt-PA plus nelonemdazK through femoral vein at 4.5 hours after embolic stroke. rt-PA was dissolved in water and injected over 20 min. NelonemdazK was dissolved in saline and injected over 5 min immediately after rt-PA infusion. Hemorrhage and brain injury were analyzed 24 hours after embolic stroke.

[2] = test system: acute ischemic stroke patients; experiment: ENIS phase II trial: acute ischemic stroke patients receiving a thrombolytic drug; assay type: in vivo, human; conditions: for good recovery ratio (patients with NIHSS score of 0-1 or decrease of NIHSS score≥4): 14 days; for ratio of mRS 0 (no symptoms at all): 6,000 mg
Description: The ENIS trial was to examine efficacy as well as safety of the intravenous infusions of nelonemdazK for acute ischemic stroke patients (35-80 years old) receiving at least one kind of thrombolytic drugs including rtPA or urokinase within 8 hours of onset. A total of 238 patients were enrolled for the ENIS trial and allocated randomly in a double-blinded manner to one of 4 groups for the intravenous infusions of test drugs as follows: (Group A) placebo [0.9% normal saline], (Group B) 2,750 mg nelonemdazK for 5 days [500 mg for 1st infusion followed by 2nd-10th infusions approximately at 12 h intervals (250 mg for each infusion)], (Group C) 5,250 mg nelonemdazK for 5 days [750 mg for 1st infusion followed by 2nd-10th infusions approximately at 12 h intervals (500 mg for each)], and (Group D) 6,000 mg nelonemdazK for 5 days [1500 mg for 1st infusion followed by 2nd-10th infusions approximately at 12 h intervals (500 mg for each)]. Acute ischemic stroke patients due to occlusion in internal carotid artery system within 8 hours of onset were enrolled. Patients with The National Institutes of Health Stroke Scale (NIHSS; range 0-42, with higher scores indicating greater stroke severity) scores of 4 to 22 and limb weakness including motor arm or motor leg score≥2 of NIHSS were included. All the patients received at least one kind of thrombolytic therapy before treatment of any study drug.
The beneficial effects of nelonemdazK were further observed by analyzing “the ratio of patients with NIHSS score of 0-1 or decrease of NIHSS score≥4 (=the good recovery ratio)” at 14 days after drug treatment. […] This implies that the beneficial effects of nelonemdazK are better for moderate to severe ([…]) ischemic stroke patients than mild (NIHSS score≤5) patients.

[3] = test system: acute ischemic stroke patients; experiment: SONIC phase II trial: acute ischemic stroke patients receiving endovascular thrombectomy with or without rt-PA; assay type: in vivo, human; conditions: for ratio of mRS 0-2 or 0: vs placebo, potassium salt
Description: The SONIC trial was to examine efficacy and safety of the intravenous infusions of nelonemdazK for acute ischemic stroke patients (adults≥19) receiving endovascular thrombectomy with or without rt-PA within 8 hours of onset as described (Hong et al., 2018). A total of 209 patients were enrolled for the SONIC trial and allocated randomly in a double-blinded manner to one of 3 groups for the intravenous infusions of test drugs as follows: (Group A) placebo [0.9% normal saline], (Group B) 2,750 mg nelonemdazK for 5 days [500 mg for 1st infusion followed by 2nd-10th infusions approximately at 12 h intervals (250 mg for each infusion)], and (Group C) 5,250 mg nelonemdazK for 5 days [750 mg for 1st infusion followed by 2nd-10th infusions approximately at 12 h intervals (500 mg for each)].
Acute ischemic stroke patients due to occlusion in carotid internal carotid artery system within 8 hours of onset were enrolled. Enrolled patients presented the National Institutes of Health Stroke Scale (NIHSS: range 0-42, with higher scores indicating greater stroke severity) scores and Alberta stroke program early CT score (ASPECTS: a 10-point quantitative topographic CT scan score used in patients with middle cerebral artery (MCA) stroke, with lower scores indicating larger cerebral infarction)≥6.
For statistical analysis, Cochran-Mantel-Haenszel (CMH) chi-square test was conducted to compare distribution and ratio of mRS scores for each group at 1, 4, and 12 weeks after drug treatment. Ordinal logistic regression was applied with multivariate analysis controlling confounding variables that may cause difference between the groups in participating institutions and baseline scores. In addition, generalized estimating equation (GEE) analysis was conducted to compare the changes between groups in mRS scores measured at 1, 4, and 12 weeks after drug treatment. For the analysis of the Barthel Index score and adverse events, chi-square test or Fisher exact test was conducted to compare difference between groups at 1, 4, and 12 weeks after drug treatment.
Acute ischemic stroke patients who presented the baseline NIHSS score≥8 and the mRS distribution of 2-5 were enrolled for the SONIC trial. Out of a total of 209 patients, 152 patients successfully completed procedures including drug treatment for 5 days and scheduled analysis over 12 weeks after drug treatment according to the clinical protocol approved by Korea Ministry of Food and Drug Safety. […] The shift analysis implies that administration of nelonemdazK reduces disability in acute stroke patients treated with endovascular thrombectomy.

[4] = test system: healthy volunteers; conditions: human, in vivo
Source text: NMDA receptor antagonists were reported to produce serious side effects in healthy humans.

Structure (SMILES): O=C([O-])c1cc(NCc2c(F)c(F)c(C(F)(F)F)c(F)c2F)ccc1O.[K+] [nelonemdazK, 2-Hydroxy-5-(2,3,5,6-tetrafluoro-4-trifluoromethylbenzylamino)benzoic acid potassium salt]
- levels of hemoglobin in the ischemic brain region [1]: significantly reduced
- hemorrhage / hemorrhagic transformation in the ischemic brain region ([1]; potassium salt, 10 mg/kg): significantly reduced; also recorded: prevents hemorrhagic transformation
- percentage of mRS 0-2 (functional independence) ([2]; 6,000 mg for 5 days, 14, 30, and 90 days, baseline NIHSS 6-24, vs placebo, potassium salt): increases
- good recovery ratio (patients with NIHSS score of 0-1 or decrease of NIHSS score≥4) ([2]; 6,000 mg (N=9), baseline NIHSS 9-24 (placebo 20%, p=0.022)): 50%
- good recovery ratio (patients with NIHSS score of 0-1 or decrease of NIHSS score≥4) ([2]; 6,000 mg (N=36), baseline NIHSS 6-24 (placebo 25.53%, p=0.106)): 41.67%
- ratio of mRS 0 (no symptoms at all) ([2]; at 14 days, baseline NIHSS 6-24 (placebo 12%)): 25%
- ratio of mRS 0 (no symptoms at all) ([2]; at 30 days, baseline NIHSS 6-24 (placebo 16%)): 34%
- ratio of mRS 0 (no symptoms at all) ([2]; at 90 days, baseline NIHSS 6-24 (placebo 26%)): 45%
- ratio of mRS 0 ([3]; 1 week, high dose (5,250 mg) (placebo 2.04%, p=0.01)): 16.67%
- ratio of mRS 0 ([3]; 1 week, low dose (2,750 mg) (placebo 2.04%, p=0.04)): 12.96%
- ratio of mRS 0 ([3]; 4 weeks, high dose (5,250 mg) (placebo 6.12%, p=0.007)): 26.67%
- ratio of mRS 0 ([3]; 4 weeks, low dose (2,750 mg) (placebo 6.12%, p=0.04)): 20%
- ratio of mRS 0 ([3]; 12 weeks, high dose (5,250 mg) (placebo 8.16%, p=0.004)): 31.25%
- ratio of patients with Barthel Index score higher than 90 ([3]; 12 weeks, high dose (placebo 41.86%, p<0.05)): 64.44%
- ratio of mRS 0 ([3]; 12 weeks, low dose (2,750 mg) (placebo 8.16%, p=0.03)): 23.64%
- ratio of patients with Barthel Index score higher than 90 ([3]; 12 weeks, low dose (placebo 41.86%)): 54.72%
- drug-related adverse events ([3]; IV up to 5,250 mg for 5 days, 12 weeks follow-up): no drug-related adverse events
- ratio of mRS 0-2 or 0 ([3]; high dose (5,250 mg, N=48), over 12 weeks): further increased; also recorded: increases
- ratio of mRS 0-2 or 0 ([3]; low dose (2,750 mg, N=55), over 12 weeks): further increased; also recorded: increases
- occurrence of adverse events and serious adverse events vs placebo ([3]; over 12 weeks): no difference
- mortality rate ([3]; over 12 weeks, high dose group (N=67) (placebo 8.57%)): 4.48%
- mortality rate ([3]; over 12 weeks, low dose group (N=71) (placebo 8.57%)): 4.23%
- Number of subjects showing abnormal behavior: Agitation [4]: 0
- Number of subjects showing abnormal behavior: Catatonia [4]: 0
- Number of subjects showing abnormal behavior: Confusion [4]: 0
- Number of subjects showing abnormal behavior: Hallucination [4]: 0
- Number of subjects showing abnormal behavior: Paranoia [4]: 0

— patent US12433861B2, “Compositions and methods for treating reperfusion injury or hemorrhage after recanalization therapy” (GNT Pharma Co., Ltd., priority 2020, dated 2025)
